{"source": "patent US20060004019A1", "about": "“Steroid sparing agents and methods of using same” (priority 2004, published 2006)", "key": {"rat cardiac allografts [1]": {"test_system": "rat cardiac allografts", "experiment": "Rat cardiac allograft study, Allograft Study 4 (Table 22);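 note: heterotopic abdominal heart transplants from Lewis × Brown Norway F1 donors into male Lewis rats, graft beating checked daily by flank palpation, rejection defined as complete stop of heartbeat, transplant day 0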", "conditions": "30 mg/kg s.c. every 12 h, day -2 to +10", "method": "Hearts from Lewis X Brown Norway F1 hybrids were transplanted to the abdominal great vessels of Lewis recipients using standard microvascular techniques. Both rat strains were male inbred rats, weighing 200-300 g. Food and water was available at all times except during surgical and dosing procedures. The day of transplantation was noted as day 0. Twelve hours following the last dose approximately 1 ml of blood was collected into lithium/heparin anti-coagulant tubes. If any graft was rejected prior to the last day of dosing, blood samples were taken 12 hours after dosing on the day that graft rejection was noted. All blood samples were centrifuged at 3000 rpm for 10 minutes and the plasma was harvested, frozen on dry ice and stored frozen at −20 C prior to analysis. Allograft survival in the rats was evaluated by daily palpation of the transplanted heart through the recipient's flank. Rejection was taken as the day of complete cessation of the graft's heart beat. Upon determination of rejection, the abdomen of the recipient was incised and retracted to confirm cessation of the heart beat in the transplanted heart. If cessation of the heart beat was not confirmed the abdomen was surgically closed, and the grafted heart was evaluated daily.\nCardiac allografts were established. Dosing of compounds began on day −2, 2 days prior to transplantation and continued through day +10. […] The vehicle control, 0.9% saline, pH adjusted to a value of 5, to match the dosing solution containing the N-[N-(3-pyridinesulfonyl)-L-3,3-dimethyl-4-thiaprolyl]-0-[1-methylpiperazin-4-ylcarbonyl]-L-tyrosine isopropyl ester, was administered via the same route, i.e. every 12 hours, day −2 through day +10. The antibody, GG5/3 in 0.9% saline, was administered at 3 mg/kg, s.c., on day 0, +3, +7 and +10. All GG5/3 animals received twice daily s.c. injections of 0.9% saline, every 12 hours, from day −2 through day +10. The vehicle control, 0.9% saline, was administered daily, s.c., day 0 through day +10. All dosing solutions were formulated daily at a constant dose volume of 5 ml/kg. The site of injection was rotated at each injection through four possible sites: right and left fore flank, right and left rear flank. A total of 21 allografts, amongst 5 groups, were evaluated in the study. […] Two animals within the 0.9% saline group received saline adjusted to a pH a value of 5. (The pH value of the N-[N-(3-pyridinesulfonyl)-L-3,3-dimethyl-4-thiaprolyl]-0-[1-methylpiperazin-4-ylcarbonyl]-L-tyrosine isopropyl ester dosing solution.) The remaining two animals received saline of pH 7. Group 2 consisted of 6 animals treated with the monoclonal antibody, GG5/3. […] Twelve hours following the last dose approximately 1 ml of blood was collected into lithium/heparin anti-coagulant tubes. If any graft was rejected prior to the last day of dosing, blood samples were taken 12 hours after dosing on the day that graft rejection was noted. All samples were centrifuged at 3000 rpm for 10 minutes and the plasma was harvested, frozen on dry ice and stored frozen at −20 C prior to dispatch for analysis. Allograft survival in the rats was evaluated by daily palpation of the transplanted heart through the recipient's flank. Rejection was taken as the day of complete cessation of graft's heart beat. Upon determination of rejection, the abdomen of the recipient was incised to confirm cessation of the heart beat in the transplanted heart. If cessation of the heart beat was not confirmed the abdomen was surgically closed, and the graft was evaluated daily."}, "rat cardiac allografts [2]": {"test_system": "rat cardiac allografts", "experiment": "Rat cardiac allograft study, Allograft Study 2 (Table 20);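 note: lewis x Brown Norway F1 hearts grafted abdominally into male Lewis rats, palpated daily, rejection meaning complete loss of heartbeat, day 0 being surgery day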", "conditions": "for number of surviving grafts within each group: s.c., GG5/3 3 mg/kg, compounds 30 mg/kg", "method": "Hearts from Lewis X Brown Norway F1 hybrids were transplanted to the abdominal great vessels of Lewis recipients using standard microvascular techniques. Both rat strains were male inbred rats, weighing 200-300 g. Food and water was available at all times except during surgical and dosing procedures. The day of transplantation was noted as day 0. […] Allograft survival in the rats was evaluated by daily palpation of the transplanted heart through the recipient's flank. Rejection was taken as the day of complete cessation of the graft's heart beat. Upon determination of rejection, the abdomen of the recipient was incised and retracted to confirm cessation of the heart beat in the transplanted heart. If cessation of the heart beat was not confirmed the abdomen was surgically closed, and the grafted heart was evaluated daily.\nCardiac allografts were established. Dosing of compounds began on day 0, prior to transplantation and continued through day +10. […] The vehicle control, 10% ethanol/corn oil, was administered s.c., every 12 hours, day 0 through day +10. The antibody, GG5/3 in 0.9% saline, was administered at 3 mg/kg, s.c., on day 0, +3, +7 and +10. All GG5/3 animals received twice daily s.c. injections of 0.9% saline, every 12 hours, throughout day 0 through day +10. The vehicle control, 0.9% saline, was administered daily, s.c., day 0 through day +10. All dosing solutions were formulated daily at a constant dose volume of 5 ml/kg. The site of injection was rotated at each injection through four possible sites: right and left fore flank, right and left rear flank. A total of 28 allografts, amongst 5 groups, were evaluated in the study. Group 1, consisted of 6 animals treated with the monoclonal antibody, GG5/3. […] Allograft survival was evaluated by daily palpation of the transplanted heart through the recipient's flank. Rejection was taken as the day of complete cessation of graft's heart beat. Upon determination of rejection, the abdomen of the recipient was incised to confirm cessation of the heart beat in the transplanted heart. If cessation of the graft's heart beat was not confirmed the abdomen was surgically closed, and the graft was evaluated daily."}, "rat cardiac allografts [3]": {"test_system": "rat cardiac allografts", "experiment": "Rat cardiac allograft study, Allograft Study 3 (Table 21)", "assay_type": "in vivo", "conditions": "for number of surviving grafts within each group / percent of surviving grafts within a group: s.c., GG5/3 3 mg/kg, compound 30 mg/kg", "procedure": "Cardiac allografts were established. […] A total of 20 allografts, amongst 4 groups, were evaluated in the study."}, "[4]": {"test_system": "Lewis X Brown Norway F1 hearts transplanted to Lewis recipients", "experiment": "Rat cardiac allograft model, Allograft Study 1 (summary across three studies)", "assay_type": "in vivo", "conditions": "for absolute cardiac allograft survival (last day of graft survival): vehicle day +9", "from_the_text": "Allograft rejection is defined as the expression of an immune reaction of the recipient, against foreign antigens of the transplanted tissue. This reaction is mediated by T lymphocytes. Cell adhesion events are of critical importance in the T-cell recognition of alloantigens, the trafficking of recipient immune and inflammatory cells into the graft, and the execution of cell-mediated effector functions. […] This beneficial therapeutic effect correlates with decreased infiltration by α4β1 positive cells, deposition of CS1-FN, and endothelial staining for VCAM-1, as determined by immunohistology/RNAse protection assay.\nTo further evaluate the therapeutic potential of α4β1 targeted therapy in transplantation rejection, three studies were conducted in a well-defined rat cardiac transplant model. The following report summarizes the data across all three studies."}, "rat cardiac allografts [5]": {"test_system": "rat cardiac allografts", "experiment": "Rat cardiac allograft study, Allograft Study 5, dose response (Table 23)", "assay_type": "in vivo"}}}
{"smiles": "Cc1ccc(S(=O)(=O)N2CCC[C@H]2C(=O)N[C@@H](Cc2ccc(OC(=O)N3CCN(CCO)CC3)cc2)C(=O)OC(C)(C)C)cc1", "values": [{"measurement": "melting point", "result": "158 to 160", "unit": "°C"}]}
{"smiles": "CC(C)OC(=O)[C@H](Cc1ccc(OC(=O)N(C)C)cc1)NC(=O)[C@H]1N(S(=O)(=O)c2cnn(C)c2)CSC1(C)C", "values": [{"measurement": "allograft acceptance compared with GG5/3", "setting": "rat cardiac allografts [1]", "result": "significantly prolong allograft acceptance beyond the level obtain with GG5/3"}, {"measurement": "graft survival rate on day +19", "setting": "rat cardiac allografts [1]", "result": "Fifty percent or greater"}, {"measurement": "longest surviving graft (one graft)", "setting": "rat cardiac allografts [1]", "result": 37, "unit": "days"}, {"measurement": "number of surviving grafts within each group", "setting": "rat cardiac allografts [2]; Day 0", "result": 6}, {"measurement": "number of surviving grafts within each group", "setting": "rat cardiac allografts [2]; Day 1", "result": 6}, {"measurement": "number of surviving grafts within each group", "setting": "rat cardiac allografts [2]; Day 2", "result": 6}, {"measurement": "number of surviving grafts within each group", "setting": "rat cardiac allografts [2]; Day 3", "result": 6}, {"measurement": "number of surviving grafts within each group", "setting": "rat cardiac allografts [2]; Day 4", "result": 6}, {"measurement": "number of surviving grafts within each group", "setting": "rat cardiac allografts [2]; Day 5", "result": 6}, {"measurement": "number of surviving grafts within each group", "setting": "rat cardiac allografts [2]; Day 6", "result": 6}, {"measurement": "number of surviving grafts within each group", "setting": "rat cardiac allografts [2]; Day 7", "result": 6}, {"measurement": "number of surviving grafts within each group", "setting": "rat cardiac allografts [2]; Day 8", "result": 6}, {"measurement": "number of surviving grafts within each group", "setting": "rat cardiac allografts [2]; Day 9", "result": 6}, {"measurement": "number of surviving grafts within each group", "setting": "rat cardiac allografts [2]; Day 10", "result": 5}, {"measurement": "number of surviving grafts within each group", "setting": "rat cardiac allografts [2]; Day 11", "result": 3}, {"measurement": "number of surviving grafts within each group", "setting": "rat cardiac allografts [2]; Day 12", "result": 3}, {"measurement": "number of surviving grafts within each group", "setting": "rat cardiac allografts [2]; Day 13", "result": 2}, {"measurement": "number of surviving grafts within each group", "setting": "rat cardiac allografts [2]; Day 14", "result": 1}, {"measurement": "number of surviving grafts within each group", "setting": "rat cardiac allografts [2]; Day 15", "result": 1}, {"measurement": "number of surviving grafts within each group", "setting": "rat cardiac allografts [2]; Day 16", "result": 0}, {"measurement": "graft survival (in words)", "setting": "rat cardiac allografts [2]; compounds 30 mg/kg s.c. every 12 h, GG5/3 3 mg/kg s.c. day 0, +3, +7, +10", "result": "significant graft survival, resembling the results obtained from the GG5/3 group"}, {"measurement": "number of surviving grafts within each group", "setting": "rat cardiac allografts [3]; Day 0", "result": 6}, {"measurement": "percent of surviving grafts within a group", "setting": "rat cardiac allografts [3]; Day 0", "result": 100, "unit": "%"}, {"measurement": "number of surviving grafts within each group", "setting": "rat cardiac allografts [3]; Day 1", "result": 6}, {"measurement": "percent of surviving grafts within a group", "setting": "rat cardiac allografts [3]; Day 1", "result": 100, "unit": "%"}, {"measurement": "number of surviving grafts within each group", "setting": "rat cardiac allografts [3]; Day 2", "result": 6}, {"measurement": "percent of surviving grafts within a group", "setting": "rat cardiac allografts [3]; Day 2", "result": 100, "unit": "%"}, {"measurement": "number of surviving grafts within each group", "setting": "rat cardiac allografts [3]; Day 3", "result": 6}, {"measurement": "percent of surviving grafts within a group", "setting": "rat cardiac allografts [3]; Day 3", "result": 100, "unit": "%"}, {"measurement": "number of surviving grafts within each group", "setting": "rat cardiac allografts [3]; Day 4", "result": 6}, {"measurement": "percent of surviving grafts within a group", "setting": "rat cardiac allografts [3]; Day 4", "result": 100, "unit": "%"}, {"measurement": "number of surviving grafts within each group", "setting": "rat cardiac allografts [3]; Day 5", "result": 6}, {"measurement": "percent of surviving grafts within a group", "setting": "rat cardiac allografts [3]; Day 5", "result": 100, "unit": "%"}, {"measurement": "number of surviving grafts within each group", "setting": "rat cardiac allografts [3]; Day 6", "result": 6}, {"measurement": "percent of surviving grafts within a group", "setting": "rat cardiac allografts [3]; Day 6", "result": 100, "unit": "%"}, {"measurement": "number of surviving grafts within each group", "setting": "rat cardiac allografts [3]; Day 7", "result": 6}, {"measurement": "percent of surviving grafts within a group", "setting": "rat cardiac allografts [3]; Day 7", "result": 100, "unit": "%"}, {"measurement": "number of surviving grafts within each group", "setting": "rat cardiac allografts [3]; Day 8", "result": 6}, {"measurement": "percent of surviving grafts within a group", "setting": "rat cardiac allografts [3]; Day 8", "result": 100, "unit": "%"}, {"measurement": "number of surviving grafts within each group", "setting": "rat cardiac allografts [3]; Day 9", "result": 4}, {"measurement": "percent of surviving grafts within a group", "setting": "rat cardiac allografts [3]; Day 9", "result": 67, "unit": "%"}, {"measurement": "number of surviving grafts within each group", "setting": "rat cardiac allografts [3]; Day 10", "result": 4}, {"measurement": "percent of surviving grafts within a group", "setting": "rat cardiac allografts [3]; Day 10", "result": 67, "unit": "%"}, {"measurement": "number of surviving grafts within each group", "setting": "rat cardiac allografts [3]; Day 11", "result": 3}, {"measurement": "percent of surviving grafts within a group", "setting": "rat cardiac allografts [3]; Day 11", "result": 50, "unit": "%"}, {"measurement": "number of surviving grafts within each group", "setting": "rat cardiac allografts [3]; Day 12", "result": 3}, {"measurement": "percent of surviving grafts within a group", "setting": "rat cardiac allografts [3]; Day 12", "result": 50, "unit": "%"}, {"measurement": "number of surviving grafts within each group", "setting": "rat cardiac allografts [3]; Day 13", "result": 1}, {"measurement": "percent of surviving grafts within a group", "setting": "rat cardiac allografts [3]; Day 13", "result": 16, "unit": "%"}, {"measurement": "number of surviving grafts within each group", "setting": "rat cardiac allografts [3]; Day 14", "result": 1}, {"measurement": "percent of surviving grafts within a group", "setting": "rat cardiac allografts [3]; Day 14", "result": 16, "unit": "%"}, {"measurement": "number of surviving grafts within each group", "setting": "rat cardiac allografts [3]; Day 15", "result": 1}, {"measurement": "percent of surviving grafts within a group", "setting": "rat cardiac allografts [3]; Day 15", "result": 16, "unit": "%"}, {"measurement": "number of surviving grafts within each group", "setting": "rat cardiac allografts [3]; Day 16", "result": 1}, {"measurement": "percent of surviving grafts within a group", "setting": "rat cardiac allografts [3]; Day 16", "result": 16, "unit": "%"}, {"measurement": "number of surviving grafts within each group", "setting": "rat cardiac allografts [3]; Day 17", "result": 0}, {"measurement": "percent of surviving grafts within a group", "setting": "rat cardiac allografts [3]; Day 17", "result": 0, "unit": "%"}, {"measurement": "number of surviving grafts within each group", "setting": "rat cardiac allografts [3]; Day 18", "result": 0}, {"measurement": "percent of surviving grafts within a group", "setting": "rat cardiac allografts [3]; Day 18", "result": 0, "unit": "%"}, {"measurement": "number of surviving grafts within each group", "setting": "rat cardiac allografts [3]; Day 19", "result": 0}, {"measurement": "percent of surviving grafts within a group", "setting": "rat cardiac allografts [3]; Day 19", "result": 0, "unit": "%"}, {"measurement": "graft acceptance out to day", "setting": "rat cardiac allografts [3]; compound 30 mg/kg s.c. every 12 h, day -2 to +10, GG5/3 3 mg/kg s.c. day 0, +3, +7, +10", "result": 16, "unit": "days"}, {"measurement": "absolute cardiac allograft survival (last day of graft survival)", "setting": "[4]", "result": 37, "unit": "day"}]}
{"smiles": "CC(C)OC(=O)[C@H](Cc1ccc(OC(=O)N2CCN(C)CC2)cc1)NC(=O)[C@H]1N(S(=O)(=O)c2cccnc2)CSC1(C)C", "note": "[Example 379]", "values": [{"measurement": "day rejection begins", "setting": "rat cardiac allografts [5]; 3 mg/kg s.c. every 12 h", "result": 7, "unit": "days"}, {"measurement": "day rejection is completed", "setting": "rat cardiac allografts [5]; 3 mg/kg s.c. every 12 h", "result": "≤ 10", "unit": "days"}, {"measurement": "protection against graft rejection", "setting": "rat cardiac allografts [5]; 3 mg/kg s.c. every 12 h", "result": "did not provide any protection against graft rejection"}, {"measurement": "day rejection begins", "setting": "rat cardiac allografts [5]; 10 mg/kg s.c. every 12 h", "result": 8, "unit": "days"}, {"measurement": "graft survival rate", "setting": "rat cardiac allografts [5]; 10 mg/kg s.c. every 12 h, by day +22", "result": 20, "unit": "%"}, {"measurement": "graft acceptance (in words)", "setting": "rat cardiac allografts [5]; 30 mg/kg s.c. every 12 h", "result": "prolonged graft acceptance"}, {"measurement": "graft survival rate", "setting": "rat cardiac allografts [5]; 30 mg/kg s.c. every 12 h, day +22, study still in progress", "result": 83, "unit": "%"}, {"measurement": "allograft acceptance compared with GG5/3", "setting": "rat cardiac allografts [1]", "result": "significantly prolong allograft acceptance beyond the level obtain with GG5/3"}, {"measurement": "graft survival rate on day +19", "setting": "rat cardiac allografts [1]", "result": "Fifty percent or greater"}, {"measurement": "longest surviving graft (one graft)", "setting": "rat cardiac allografts [1]", "result": 41, "unit": "days"}, {"measurement": "graft survival rate on day +14", "setting": "[4]", "result": 66, "unit": "%"}, {"measurement": "graft survival rate out to day +30", "setting": "[4]", "result": 33, "unit": "%"}, {"measurement": "absolute cardiac allograft survival (last day of graft survival)", "setting": "[4]", "result": 41, "unit": "day"}]}
